In one assay the target is T1, human ETB receptor (Homo sapiens, UniProt P24530).
T1 construct: expressed in transfected cells; host or cells: CHO-K1 cells, pRc-CMW (so in the source) expression vector, electroporation; membranes used
T1 sequence (P24530 27-442): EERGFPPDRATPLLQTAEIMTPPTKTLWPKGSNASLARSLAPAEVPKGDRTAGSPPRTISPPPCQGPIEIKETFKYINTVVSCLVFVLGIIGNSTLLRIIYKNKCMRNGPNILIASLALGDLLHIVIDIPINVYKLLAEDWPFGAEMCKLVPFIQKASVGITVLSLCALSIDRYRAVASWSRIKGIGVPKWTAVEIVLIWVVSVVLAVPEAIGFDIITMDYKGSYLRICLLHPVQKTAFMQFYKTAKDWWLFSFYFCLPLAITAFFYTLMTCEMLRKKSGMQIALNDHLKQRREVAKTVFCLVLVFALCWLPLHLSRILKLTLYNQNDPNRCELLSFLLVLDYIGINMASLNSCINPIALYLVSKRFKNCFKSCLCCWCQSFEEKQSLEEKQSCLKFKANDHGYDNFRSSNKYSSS
The experiment in a line: ERBA-B: [125I]-ET-1 binding, recombinant human ETB receptor expressed in CHO-K1 cells. The settings on record: human cloned ETB receptor, read-out: ERBA-B IC50, human cloned receptor data. As to the method: Count filters for radioactivity in gamma counter.
The above process has also been modified by using human recombinant CHO-K1 cells.
The tissue used for human ETB was recombinant human ETB receptor expressed in CHO-K1 cells (chinese hamster ovary cells). The gene for human ETB receptor was cloned and inserted into the pRc-CMW expression vector, then transfected into CHO-K1 cells by electroporation. For binding assays, membranes (0.7 mg protein) of CHO-K1 cells expressing recombinant human ETB receptor were used.
^d Human cloned receptor data

For the next assay, the target named is T2, ETA (Oryctolagus cuniculus, UniProt A5A8K3).
T2 sequence (A5A8K3 21-427): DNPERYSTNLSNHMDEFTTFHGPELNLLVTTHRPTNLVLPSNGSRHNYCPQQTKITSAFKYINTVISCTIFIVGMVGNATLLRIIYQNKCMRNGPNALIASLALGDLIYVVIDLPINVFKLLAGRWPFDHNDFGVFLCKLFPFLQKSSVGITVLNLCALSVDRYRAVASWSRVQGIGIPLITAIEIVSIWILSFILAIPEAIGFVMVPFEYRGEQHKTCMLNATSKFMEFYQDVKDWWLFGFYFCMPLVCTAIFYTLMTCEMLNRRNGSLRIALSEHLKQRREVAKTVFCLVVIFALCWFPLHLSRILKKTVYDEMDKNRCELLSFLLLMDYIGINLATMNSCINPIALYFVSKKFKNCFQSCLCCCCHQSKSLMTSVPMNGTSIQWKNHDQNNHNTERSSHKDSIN
To be noted: ERBA-A IC50, [125I]-ET-1, rabbit renal artery vascular smooth muscle cells.

The source of these data is US5691373A, “Nonpeptide endothelin antagonists I” (Warner-Lambert Company, priority 1995, dated 1997).

One may read the IC50 as the point on the concentration scale where inhibition reaches its midpoint. Take `COc1ccc(CC2=C(c3ccc(Cl)c(Cl)c3)C(=O)OC2(O)c2ccc(OC)cc2)cc1` (centres unmarked) [Example 117, 3-(3,4-Dichlorophenyl)-5-hydroxy-4-(4-methoxybenzyl)-5-(4-methoxyphenyl)-5H -furan-2-one]: the half-maximal inhibitory concentration (IC50) came to 2700 nM at human ETB receptor and 310 nM against ETA.
The matching figures for `CCCCCCCCOc1ccc(CC2=C(c3cc(OC)cc(OC)c3)C(=O)OC2(O)c2ccc(OC)cc2)cc1OC` (centres unmarked) [Example 381, 3-(3,5-Dimethoxy-phenyl)-5-hydroxy-4-(3-methoxy-4-octyloxy-benzyl)-5-(4-methoxy-phenyl)-5H-furan-2-one]: 570 nM and 68 nM.
On the same counts, the results for `COc1ccc(C2(O)OC(=O)C(c3cc(OC)cc(OC)c3)=C2Cc2ccc(OC)c(C)c2)cc1` (centres unmarked) [Example 272] are 760 nM and 6.4 nM.
For the molecule `COc1ccc(C2(O)OC(=O)C(c3ccc(Cl)c(Cl)c3)=C2Cc2ccccc2)cc1` (centres unmarked) [Example 120, 4-Benzyl-3-(3,4-dichlorophenyl)-5-hydroxy-5-(4-methoxyphenyl)-5H-furan-2-one], on ETA, it took 850 nM to reach half-maximal inhibition (IC50).
For `COc1ccc(C2(O)OC(=O)C(c3cc(OC)cc(OC)c3)=C2Cc2cccc(F)c2)cc1` (centres unmarked) [Example 129, 3-(3,5-Dimethoxphenyl)-4-(3-fluorobenzyl)-5-hydroxy-5-(4-methoxyphenyl)-5H-furan-2-one], the results for the IC50 at human ETB receptor and against ETA were 2300 nM and 72 nM, respectively.
`COc1ccc(C2(O)OC(=O)C(c3ccc4c(c3)OCO4)=C2Cc2cccc(C(=O)O)c2)cc1` (centres unmarked) [Example 292, 3-[4-Benzo[1,3]dioxol-5-yl-2-hydroxy-2-(4-methoxyphenyl)-5-oxo-2,5-dihydro-furan-3-ylmethyl]-benzoic acid] came in with an IC50 at ETA of 83 nM.
In the case of `COc1ccc(C2(O)OC(=O)C(c3ccc4c(c3)OCO4)=C2Cc2ccccc2Oc2ccccc2)cc1` (centres unmarked) [Example 313, 3-Benzo[1,3]dioxol-5-yl-5-hydroxy-5-(4-methoxy-phenyl)-4-(2-phenoxy-benzyl) -5H-furan-2-one], the IC50 at human ETB receptor was more than 2500 nM; at ETA, 99 nM.
On the same counts, the results for `COc1ccc(C2(O)OC(=O)C(c3ccc4c(c3)OCO4)=C2CC2CCCC(C(=O)O)C2)cc1` (centres unmarked) [Example 403, 3-[4-Benzo[1,3]dioxol-5-yl-2-hydroxy-2-(4-methoxyphenyl)-5-oxo-2,5-dihydro-furan-3-ylmethyl]-cyclohexanecarboxylic acid] are 3000 nM and 250 nM.
The matching figures for `CCCCCC1=C(c2ccc3c(c2)OCO3)C(=O)OC1(O)c1ccc(OC)cc1` (centres unmarked) [Example 340, 3-Benzo[1,3]dioxol-5-yl-5-hydroxy-5-(4-methoxy-phenyl)-4-pentyl-5H-furan-2-one]: 630 nM and 69 nM.
The molecule `COc1ccc(C2(O)OC(=O)C(c3ccc4c(c3)OCO4)=C2Cc2ccccc2)cc1C` (racemic) [Example 290, 2(5H)-Furanone, 3-(1,3-benzodioxol-5-yl)-5hydroxy-5-(4-methoxy-3-methylphenyl)-4-(phenylmethyl)-, (±)-] came in with a half-maximal inhibitory concentration (IC50) against ETA of 12 nM.
The same measure, in the same setting: the figure for `COc1ccc(C2(O)OC(=O)C(c3ccc(F)c(F)c3)=C2Cc2ccc(C(C)C)cc2)cc1` (centres unmarked) [Example 144, 3-(3,4-Difluorophenyl)-5-hydroxy-4-(4-isopropylbenzyl)-5-(4-methoxyphenyl)-5H-furan-2-one] is 290 nM; for `COc1ccc(C2(O)OC(=O)C(c3ccc4c(c3)OCO4)=C2Cc2ccc(OC)c(OC)c2OC)cc1` (centres unmarked) [Example 305, 3-Benzo[1,3]dioxol-5-yl-5-hydroxy-5-(4-methoxy-phenyl)-4-(2,3,4-trimethoxy-benzyl)-5H-furan-2-one] it is 33 nM.
The same measure, in the same setting: then `COc1ccc(C2(O)OC(=O)C(c3ccc(F)c(F)c3)=C2Cc2ccccc2)cc1` (centres unmarked) [Example 143, 4-Benzyl-3-(3,4-difluorophenyl)-5-hydroxy-5-(4-methoxyphenyl)-5H-furan-2-one], with 1900 nM; and `COc1ccccc1C1(O)OC(=O)C(c2ccc3c(c2)OCO3)=C1Cc1ccccc1` (centres unmarked) [Example 249, 3-Benzo[1,3]dioxol-5-yl-4-benzyl-5-hydroxy-5-(2-methoxyphenyl)-5H-furan-2-one], with 500 nM; and `COc1ccc(CC2=C(c3ccc(N(C)C)cc3)C(=O)OC2(O)c2ccc(Cl)cc2)cc1OC` (racemic) [Example 56, 2(5H)-Furanone, 5-(4-chlorophenyl)-4-[(3,4-dimethoxyphenyl)methyl]-3-[4-(dimethylamino)phenyl]-5-hydroxy-, (±)-], with 14000 nM.
Take `COc1ccc(C2(O)OC(=O)C(c3ccc4c(c3)OCO4)=C2Cc2cccc3ccccc23)cc1` (centres unmarked) [Example 250, 3-Benzo[1,3]dioxol-5-yl-5-hydroxy-5-(4-methoxyphenyl)-4-naphthalen-1-ylmethyl-5H-furan-2-one]: the half-maximal inhibitory concentration (IC50) on ETA is 13 nM.
Same read-out and setting: the figure for `COc1ccc(C2(O)OC(=O)C(c3ccc4c(c3)OCO4)=C2Cc2ccc(OCc3ccccc3)cc2)cc1` (centres unmarked) [Example 86, 3-Benzo[1,3]dioxol-5-yl-4-(4-benzyloxybenzyl)-5-hydroxy-5-(4-methoxyphenyl) -5H-furan-2-one] is 310 nM; for `COc1ccc(C2(O)OC(=O)C(c3ccc4c(c3)OCO4)=C2Cc2ccc(C(F)(F)F)cc2)cc1` (centres unmarked) [Example 88, 3-Benzo[1,3]dioxol-5-yl-5-hydroxy-5-(4-methoxyphenyl)-4-(4-trifluoromethylbenzyl)-5H-furan-2-one] it is 250 nM; for `COC(=O)c1ccc(C2(O)OC(=O)C(c3ccc4c(c3)OCO4)=C2Cc2ccccc2)cc1` (centres unmarked) [Example 198, 4-(4-Benzo[1,3]dioxol-5-yl-3-benzyl-2-hydroxy-5-oxo-2,5-dihydrofuran-2-yl)b enzoic acid methyl ester] it is 410 nM.
Still for that read-out and setting: then `COc1ccc(C2(O)OC(=O)C(c3ccc(Cl)c(Cl)c3)=C2Cc2ccc(C(C)C)cc2)cc1` (centres unmarked) [Example 121, 3-(3,4-Dichlorophenyl)-5-hydroxy-4-(4-isopropylbenzyl)-5-(4-methoxyphenyl)-5H-furan-2-one], with 74 nM.
`COc1ccc(C(=O)/C(Cc2cc(OC)c(OC)c(OC)c2)=C(\C(=O)O)c2cc(OC)c3c(c2)OCO3)cc1C` [Example 369, Sodium 2-(7-Methoxy-benzo[1,3]dioxol-5-yl)-3-(4-methoxy-3-methyl-benzoyl)-4-(3,4,5-trimethoxyphenyl)-but-2-enoate]: the IC50 at human ETB receptor was found to be 328 nM.
Molecule `CSc1ccc(C2(O)OC(=O)C(c3ccc4c(c3)OCO4)=C2Cc2ccccc2)cc1` (centres unmarked) [Example 271, 3-Benzo[1,3]dioxol-5-yl-4-benzyl-5-hydroxy-5-(4-methylsulfanylphenyl)-5H-fu ran-2-one] came in with a concentration for half-maximal inhibition (IC50) on ETA of 390 nM.
Same read-out and setting: then `Cc1ccc(C2(O)OC(=O)C(c3ccc4c(c3)OCO4)=C2Cc2ccccc2)cc1C` (centres unmarked) [Example 212, 3-Benzo[1,3]dioxol-5-yl-4-benzyl-5-(3,4-dimethylphenyl)-5-hydroxy-5H-furan-2-one], with 1300 nM; and `COc1ccc(C2(O)OC(=O)C(c3ccc(F)c(F)c3)=C2Cc2ccc(N(C)C)cc2)cc1` (centres unmarked) [Example 145, 3-(3,4-Difluorophenyl)-4-(4-dimethylaminobenzyl)-5-hydroxy-5-(4-methoxyphenyl)-5H-furan-2-one], with 1700 nM; and `COc1ccc(C2(O)OC(=O)C(c3cc(OC)cc(OC)c3)=C2CC2CCCCC2)cc1` (centres unmarked) [Example 275, 2(5H)-Furanone, 4-(cyclohexylmethyl)-3-(3,5-dimethoxyphenyl)-5-hydroxy-5-(4-methoxyphenyl)], with 12 nM.
At ETA, `COc1ccc(C2(O)OC(=O)C(c3cc(Cl)cc(Cl)c3)=C2Cc2ccccc2)cc1` (centres unmarked) [Example 149, 4-Benzyl-3-(3,5-dichloro-phenyl)-5-hydroxy-5-(4-methoxy-phenyl)-5H-furan-2-one] came in with an IC50 of 600 nM.
On the same count and under the same terms, then `CC(C)c1ccc(CC2=C(c3ccc(N(C)C)cc3)C(=O)OC2(O)c2ccc(Cl)cc2)cc1` (racemic) [Example 57, 2(5H)-Furanone, 5-(4-chlorophenyl)-3-[(4-(dimethylamino)phenyl]-5-hydroxy-4-[[4-(1-methylethyl)phenyl]methyl]-, (±)-], with 11000 nM; and `CCc1ccc(C2(O)OC(=O)C(c3ccc4c(c3)OCO4)=C2Cc2ccccc2)cc1` (centres unmarked) [Example 266, 3-Benzo[1,3]dioxol-5-yl-4-benzyl-5-(4-ethylphenyl)-5-hydroxy-5H-furan-2-one], with 600 nM.
